Data reported in patent US20240245668A1, “AGENT FOR TREATING OR PREVENTING GLAUCOMA INCLUDING A SULFONAMIDE COMPOUND AND ANOTHER DRUG” (SANTEN PHARMACEUTICAL CO., LTD., priority 2012, published 2024).

Key:
[1] = test system: monkeys with normal intraocular pressure; assay: Intraocular pressure lowering effect, present compound and brimonidine concomitantly administered to monkeys; type: in vivo, Cynomolgus monkey; conditions: male cynomolgus monkeys, instillation into one eye, 0.0006 w/v % present compound solution 20 μL, ALPHAGAN P (0.15%) 20 μL
Description: (§1) In order to study the usefulness of a combination of the present compound with an α2-receptor agonist, an intraocular pressure lowering effect when the present compound and brimonidine were concomitantly administered to experimental animals (monkeys with normal intraocular pressure) was examined.
(§2) An intraocular pressure lowering effect when the present compound and brimonidine were concomitantly administered was examined. As comparison subjects, intraocular pressure lowering effects when the present compound or brimonidine was administered singly were also examined. As a control, the base and physiological saline were administered.
(§3) Present compound solution: a 0.0006 w/v % present compound solution (instillation amount: 20 μL) […]
(§4) • (1) One drop of a 0.4% oxybuprocaine hydrochloride eye drop (trade name: Benoxil (registered trademark) eye drop (0.4%)) was instilled into both eyes of each experimental animal to effect local anesthesia. • (2) Intraocular pressure was measured immediately before administering the test compound solution, and the measured intraocular pressure was defined as initial intraocular pressure. • (3) The present compound solution was instilled into one eye of each experimental animal (the other eye was not treated). […] The intraocular pressure was measured in triplicate for each eye to obtain an average of three measurements, which is shown as the result. […]

[2] = test system: monkeys with normal intraocular pressure; assay: Intraocular pressure lowering effect, present compound and brinzolamide concomitantly administered to monkeys; type: in vivo, Cynomolgus monkey; conditions: male cynomolgus monkeys, instillation into one eye, 0.0006 w/v % present compound solution 20 μL, Azopt Ophthalmic Suspension (1%) 20 μL
Description: as §1, with “a carbonic anhydrase inhibitor,” for “an α2-receptor agonist,”, “brinzolamide” for “brimonidine”
as §2, with “brinzolamide” for “brimonidine”
as §3, §4

[3] = test system: monkeys with normal intraocular pressure; assay: Intraocular pressure lowering effect, present compound and latanoprost concomitantly administered to monkeys; type: in vivo, Cynomolgus monkey; conditions: male cynomolgus monkeys, instillation into one eye, 0.0006 w/v % present compound solution 20 μL, Xalatan eye drop (0.005%) 20 μL
Description: In order to study the usefulness of a combination of the present compound with a prostaglandin, an intraocular pressure lowering effect when the present compound and latanoprost were concomitantly administered to experimental animals (monkeys with normal intraocular pressure) was examined.
as §2, with “latanoprost” for “brimonidine”
as §3
as §4, with “The intraocular measured in” for “The intraocular pressure was measured in”

[4] = test system: rabbits with normal intraocular pressure; assay: Intraocular pressure lowering effect, present compound and timolol concomitantly administered to rabbits; type: in vivo, Japanese white rabbit; conditions: male JW rabbits, instillation into one eye, 0.001 w/v % present compound solution 50 μL, Timoptol eye drop (0.5%) 50 μL
Description: In order to study the usefulness of the combination of the present compound with a β-receptor antagonist, an intraocular pressure lowering effect when the present compound and timolol were concomitantly administered to experimental animals (rabbits with normal intraocular pressure) was examined.
as §2, with “timolol” for “brimonidine”
Present compound solution: a 0.001 w/v % present compound solution (instillation amount: 50 μL) […]
as §4

Brc1c(NC2=NCCN2)ccc2nccnc12 [Brimonidine, brimonidine] was tested, and the “Intraocular pressure lowering degree (change relative to average of control group) at 2 hours after instillation” value [1] was 1.8 mmHg.
In the case of CCN[C@H]1CN(CCCOC)S(=O)(=O)c2sc(S(N)(=O)=O)cc21 [Brinzolamide, brinzolamide], the “Intraocular pressure lowering degree (change relative to average of control group) at 4 hours after instillation” value [2] is reported as 1.6 mmHg.
CC(C)OC(=O)CCC/C=C\C[C@@H]1[C@@H](CC[C@@H](O)CCc2ccccc2)[C@H](O)C[C@@H]1O [Latanoprost, latanoprost] was tested, and the “Intraocular pressure lowering degree (change relative to average of control group) at 8 hours after instillation” value [3] was 1.5 mmHg.
CC(C)OC(=O)CNc1cccc(CN(Cc2ccc(-n3cccn3)cc2)S(=O)(=O)c2cccnc2)n1 [Present compound, isopropyl (6-{[4-(pyrazol-1-yl)benzyl](pyridin-3-ylsulfonyl)aminomethyl}pyridin-2-ylamino) acetate] was tested, and the “Intraocular pressure lowering degree (change relative to average of control group) at 8 hours after instillation” value [3] was 1.6 mmHg, the “Intraocular pressure lowering degree (change relative to average of control group) at 2 hours after instillation” value [1] was 2.6 mmHg and the “Intraocular pressure lowering degree (change relative to average of control group) at 4 hours after instillation” value [2] was 2.5 mmHg. The “Intraocular pressure lowering degree (change relative to average of control group) at 4 hours after instillation” value [4] was 1.6 mmHg.
In the case of CC(C)(C)NC[C@H](O)COc1nsnc1N1CCOCC1 [Timolol, timolol], the “Intraocular pressure lowering degree (change relative to average of control group) at 4 hours after instillation” value [4] is reported as 2.3 mmHg.
